Experimental data: PMC9763329, “Targeting the transcription factor HES1 by L-menthol restores protein phosphatase 6 in keratinocytes in models of psoriasis” (Nature Communications, 2022)

How the values were obtained:
[1] = target: T1, HES1 (transcription factor hairy and enhancer of split 1) (Homo sapiens, UniProt Q14469); assay: microscale thermophoresis (Monolith NT.[…]); assay type: binding
T1 construct: Human HES1 in pET-28a(+), C-terminal 6xHis tag kept, E. coli BL21(DE3), nickel and size-exclusion purified
T1 sequence (Q14469 1-280): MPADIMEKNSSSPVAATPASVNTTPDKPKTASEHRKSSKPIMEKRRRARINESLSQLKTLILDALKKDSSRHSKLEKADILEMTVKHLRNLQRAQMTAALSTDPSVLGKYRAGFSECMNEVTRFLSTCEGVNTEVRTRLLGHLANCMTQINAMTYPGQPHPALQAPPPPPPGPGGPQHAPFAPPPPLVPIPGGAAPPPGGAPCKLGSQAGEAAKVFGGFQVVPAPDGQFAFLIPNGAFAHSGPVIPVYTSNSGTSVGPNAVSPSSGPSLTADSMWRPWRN

Hes1 = target: T2, Hes1 (Mus musculus, UniProt P35428); assay: DARTS (pronase protection, anti-HES1 immunoblot); assay type: biochemical; conditions: primary mouse keratinocyte lysate; 30 min L-menthol then 20 min pronase, room temperature
T2 construct: endogenous Hes1 in primary mouse keratinocyte lysate, detected by anti-HES1 immunoblot
T2 sequence (P35428 1-282): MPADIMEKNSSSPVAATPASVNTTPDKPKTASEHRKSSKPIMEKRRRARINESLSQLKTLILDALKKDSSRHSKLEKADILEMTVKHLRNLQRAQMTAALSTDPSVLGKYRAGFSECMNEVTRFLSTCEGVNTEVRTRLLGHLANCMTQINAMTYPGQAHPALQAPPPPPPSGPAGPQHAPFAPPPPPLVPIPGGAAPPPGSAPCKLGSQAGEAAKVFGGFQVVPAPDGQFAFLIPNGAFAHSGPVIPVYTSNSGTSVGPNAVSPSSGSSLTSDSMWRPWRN

Kd [1]: 16.8 nM
SMILES: CC(C)[C@@H]1CC[C@@H](C)C[C@H]1O [L-menthol]
DARTS (pronase protection, anti-HES1 immunoblot) (Hes1): interaction between HES1 and L-menthol was verified in HaCaT cells
